Test results as given in ChEMBL document CHEMBL1153890, “Total synthesis and biological evaluation of novel C2-C6 region analogues of dictyostatin” (Bioorg Med Chem, 2009).
pIC50: −log10 of the molar value.

What was measured:
[1] = Growth inhibition of paclitaxel-resistant human NCI/ADR cells after 72 hrs by MTT assay; type: functional, cell-based; details: NCI/ADR-RES
PANC-1 [2] = experiment: Cell cycle arrest in human PANC1 cells assessed as accumulation at S phase at 100 nM after 24 hrs by flow cytometry; type: functional
PANC-1 [3] = experiment: Cell cycle arrest in human PANC1 cells assessed as accumulation at G2/M phase at 100 nM after 24 hrs by flow cytometry; type: functional
PANC-1 [4] = experiment: Cell cycle arrest in human PANC1 cells assessed as accumulation at G1 phase at 100 nM after 24 hrs by flow cytometry; type: functional
PANC-1 [5] = experiment: Growth inhibition of human PANC1 cells after 72 hrs by MTT assay; type: functional, cell-based; details: PANC-1, 72 h
ASPC1 = experiment: Growth inhibition of human AsPC1 cells after 72 hrs by MTT assay; type: functional, cell-based; details: ASPC1, 72 h
DLD-1 = experiment: Growth inhibition of human DLD1 cells after 72 hrs by MTT assay; type: functional, cell-based; details: DLD-1, 72 h

pIC50 (PANC-1 [5]) | pIC50 (ASPC1) | pIC50 (DLD-1) | SMILES | pIC50 [1] | Activity (PANC-1 [2]) [%] | Activity (PANC-1 [3]) [%] | Activity (PANC-1 [4]) [%]
– | – | – | C=C/C=C\[C@H](C)[C@@H]1OC(=O)/C=C\C=C\[C@@H](C)[C@@H](O)C[C@H](O)/C=C\[C@H](C)[C@H](O)[C@@H](C)CCCC[C@@H](O)[C@@H]1C | 5.82 | – | – | –
– | – | – | C=C/C=C\[C@H](C)[C@@H]1OC(=O)CC/C=C/[C@@H](C)[C@@H](O)C[C@H](O)/C=C\[C@H](C)[C@H](O)[C@@H](C)C[C@@H](C)CC[C@@H](O)[C@@H]1C | – | 17 | 75 | 9
– | – | – | C=C/C=C\[C@H](C)[C@@H]1OC(=O)/C=C\C=C\C[C@@H](O)C[C@H](O)/C=C\[C@H](C)[C@H](O)[C@@H](C)C[C@@H](C)CC[C@@H](O)[C@@H]1C | – | 17 | 76 | 8
5.89 | 5.51 | 6.03 | C=C/C=C\[C@H](C)[C@H](O)[C@@H](C)[C@H]1CC[C@H](C)C[C@H](C)[C@@H](O)[C@@H](C)/C=C\[C@@H](O)C[C@H](O)[C@H](C)/C=C/CCC(=O)O1 | 5.80 | – | – | –
5.49 | 5.31 | 5.82 | C=C/C=C\[C@H](C)[C@H](O)[C@@H](C)[C@H]1CC[C@H](C)C[C@H](C)[C@@H](O)[C@@H](C)/C=C\[C@@H](O)C[C@H](O)[C@H](C)CCCCC(=O)O1 | 5.51 | – | – | –
– | – | – | C=C/C=C\[C@H](C)[C@@H]1OC(=O)CCCC[C@@H](C)[C@@H](O)C[C@H](O)/C=C\[C@H](C)[C@H](O)[C@@H](C)C[C@@H](C)CC[C@@H](O)[C@@H]1C | – | 9 | 84 | 6
– | – | – | C=C/C=C\[C@H](C)[C@@H]1OC(=O)/C=C\C=C\[C@@H](C)[C@@H](O)C[C@H](O)/C=C\[C@H](C)[C@H](O)[C@@H](C)C[C@@H](C)CC[C@@H](O)[C@@H]1C [DICTYOSTATIN] | – | 14 | 82 | 4.2
